Experimental data from ChEMBL document CHEMBL5113398, “Design and synthesis of new quinoline derivatives as selective C-RAF kinase inhibitors with potent anticancer activity” (Eur J Med Chem, 2022).

What was measured:
[1] = molecular target: Serine/threonine-protein kinase B-raf (Homo sapiens) (UniProt P15056); assay: Inhibition of wild type B-RAF (unknown origin) at 1 uM in presence of ATP by hotspot kinase assay
[2] = tested on: A498; assay: Anticancer activity against human A498 cells assessed as cell growth inhibition incubated for 48 hrs by SRB assay; type: functional
[3] = tested on: MOLT-4; assay: Anticancer activity against human MOLT-4 cells assessed as cell growth inhibition incubated for 48 hrs by SRB assay; type: functional
[4] = tested on: CCRF-CEM; assay: Anticancer activity against human CCRF-CEM cells assessed as cell growth inhibition incubated for 48 hrs by SRB assay; type: functional
[5] = tested on: NCI-H460; assay: Anticancer activity against human NCI-H460 cells assessed as total cell growth inhibition incubated for 48 hrs by SRB assay; type: functional
[6] = molecular target: Vascular endothelial growth factor receptor 2 (Homo sapiens) (UniProt P35968); assay: Inhibition of VEGFR2 (unknown origin) at 1 uM in presence of ATP by hotspot kinase assay
[7] = tested on: OVCAR-8; assay: Anticancer activity against human OVCAR-8 cells assessed as cell growth inhibition incubated for 48 hrs by SRB assay; type: functional
[8] = tested on: SF-539; assay: Anticancer activity against human SF-539 cells assessed as cell growth inhibition incubated for 48 hrs by SRB assay; type: functional
[9] = tested on: RPMI-8226; assay: Anticancer activity against human RPMI-8226 cells assessed as total cell growth inhibition incubated for 48 hrs by SRB assay; type: functional
[10] = tested on: NCI-H23; assay: Anticancer activity against human NCI-H23 cells assessed as total cell growth inhibition incubated for 48 hrs by SRB assay; type: functional
[11] = tested on: T47D; assay: Anticancer activity against human T47D cells assessed as total cell growth inhibition incubated for 48 hrs by SRB assay; type: functional
[12] = tested on: NCI-H322M; assay: Anticancer activity against human NCI-H322M cells assessed as cell growth inhibition incubated for 48 hrs by SRB assay; type: functional
[13] = tested on: IGROV-1; assay: Anticancer activity against human IGROV-1 cells assessed as total cell growth inhibition incubated for 48 hrs by SRB assay; type: functional
[14] = tested on: MDA-MB-468; assay: Anticancer activity against human MDA-MB-468 cells assessed as total cell growth inhibition incubated for 48 hrs by SRB assay; type: functional
[15] = tested on: NCI-H522; assay: Anticancer activity against human NCI-H522 cells assessed as cell growth inhibition incubated for 48 hrs by SRB assay; type: functional
[16] = tested on: SW-620; assay: Anticancer activity against human SW-620 cells assessed as cell growth inhibition incubated for 48 hrs by SRB assay; type: functional
[17] = tested on: OVCAR-3; assay: Anticancer activity against human OVCAR-3 cells assessed as cell growth inhibition incubated for 48 hrs by SRB assay; type: functional
[18] = tested on: NCI/ADR-RES; assay: Anticancer activity against human NCI/ADR-RES cells assessed as total cell growth inhibition incubated for 48 hrs by SRB assay; type: functional
[19] = tested on: MDA-MB-468; assay: Anticancer activity against human MDA-MB-468 cells assessed as cell growth inhibition incubated for 48 hrs by SRB assay; type: functional
[20] = tested on: CAKI-1; assay: Anticancer activity against human CAKI-1 cells assessed as cell growth inhibition incubated for 48 hrs by SRB assay; type: functional
[21] = tested on: LOX IMVI; assay: Anticancer activity against human LOX IMVI cells assessed as total cell growth inhibition incubated for 48 hrs by SRB assay; type: functional
[22] = tested on: SN12C; assay: Anticancer activity against human SN12C cells assessed as total cell growth inhibition incubated for 48 hrs by SRB assay; type: functional
[23] = tested on: NCI-H460; assay: Anticancer activity against human NCI-H460 cells assessed as cell growth inhibition incubated for 48 hrs by SRB assay; type: functional
[24] = tested on: RXF 393; assay: Anticancer activity against human RXF 393 cells assessed as total cell growth inhibition incubated for 48 hrs by SRB assay; type: functional
[25] = tested on: SF-268; assay: Anticancer activity against human SF-268 cells assessed as cell growth inhibition incubated for 48 hrs by SRB assay; type: functional
[26] = tested on: CCRF-CEM; assay: Anticancer activity against human CCRF-CEM cells assessed as total cell growth inhibition incubated for 48 hrs by SRB assay; type: functional
[27] = molecular target: Dual specificity mitogen-activated protein kinase kinase 1 (Homo sapiens) (UniProt Q02750); assay: Inhibition of MEK1 (unknown origin) at 1 uM in presence of ATP by hotspot kinase assay
[28] = tested on: U-251; assay: Anticancer activity against human U-251 cells assessed as cell growth inhibition incubated for 48 hrs by SRB assay; type: functional
[29] = tested on: SF-539; assay: Anticancer activity against human SF-539 cells assessed as total cell growth inhibition incubated for 48 hrs by SRB assay; type: functional
[30] = tested on: PC-3; assay: Anticancer activity against human PC-3 cells assessed as cell growth inhibition incubated for 48 hrs by SRB assay; type: functional
[31] = molecular target: Epidermal growth factor receptor (Homo sapiens) (UniProt P00533); assay: Inhibition of EGFR (unknown origin) at 1 uM in presence of ATP by hotspot kinase assay
[32] = tested on: RXF 393; assay: Anticancer activity against human RXF 393 cells assessed as cell growth inhibition incubated for 48 hrs by SRB assay; type: functional
[33] = tested on: Malme-3M; assay: Anticancer activity against human Malme-3M cells assessed as total cell growth inhibition incubated for 48 hrs by SRB assay; type: functional
[34] = molecular target: Receptor-type tyrosine-protein kinase FLT3 (Homo sapiens) (UniProt P36888); assay: Inhibition of FLT3 (unknown origin) at 1 uM in presence of ATP by hotspot kinase assay
[35] = tested on: 786-0; assay: Anticancer activity against human 786-0 cells assessed as total cell growth inhibition incubated for 48 hrs by SRB assay; type: functional
[36] = tested on: K562; assay: Anticancer activity against human K562 cells assessed as cell growth inhibition incubated for 48 hrs by SRB assay; type: functional
[37] = tested on: MDA-MB-231; assay: Anticancer activity against human MDA-MB-231 cells assessed as total cell growth inhibition incubated for 48 hrs by SRB assay; type: functional
[38] = tested on: RPMI-8226; assay: Anticancer activity against human RPMI-8226 cells assessed as cell growth inhibition incubated for 48 hrs by SRB assay; type: functional
[39] = tested on: LOX IMVI; assay: Anticancer activity against human LOX IMVI cells assessed as cell growth inhibition incubated for 48 hrs by SRB assay; type: functional
[40] = tested on: HOP-62; assay: Anticancer activity against human HOP-62 cells assessed as total cell growth inhibition incubated for 48 hrs by SRB assay; type: functional
[41] = tested on: Hs-578T; assay: Anticancer activity against human Hs-578T cells assessed as total cell growth inhibition incubated for 48 hrs by SRB assay; type: functional
[42] = tested on: OVCAR-4; assay: Anticancer activity against human OVCAR-4 cells assessed as cell growth inhibition incubated for 48 hrs by SRB assay; type: functional
[43] = tested on: HT-29; assay: Anticancer activity against human HT-29 cells assessed as total cell growth inhibition incubated for 48 hrs by SRB assay; type: functional
[44] = tested on: U-251; assay: Anticancer activity against human U-251 cells assessed as total cell growth inhibition incubated for 48 hrs by SRB assay; type: functional
[45] = tested on: TK-10; assay: Anticancer activity against human TK-10 cells assessed as cell growth inhibition incubated for 48 hrs by SRB assay; type: functional
[46] = tested on: K562; assay: Anticancer activity against human K562 cells assessed as total cell growth inhibition incubated for 48 hrs by SRB assay; type: functional
[47] = tested on: M14; assay: Anticancer activity against human M14 cells assessed as cell growth inhibition incubated for 48 hrs by SRB assay; type: functional
[48] = tested on: SW-620; assay: Anticancer activity against human SW-620 cells assessed as total cell growth inhibition incubated for 48 hrs by SRB assay; type: functional

Serine/threonine-protein kinase B-raf (Homo sapiens), sequence (P15056 whole entry): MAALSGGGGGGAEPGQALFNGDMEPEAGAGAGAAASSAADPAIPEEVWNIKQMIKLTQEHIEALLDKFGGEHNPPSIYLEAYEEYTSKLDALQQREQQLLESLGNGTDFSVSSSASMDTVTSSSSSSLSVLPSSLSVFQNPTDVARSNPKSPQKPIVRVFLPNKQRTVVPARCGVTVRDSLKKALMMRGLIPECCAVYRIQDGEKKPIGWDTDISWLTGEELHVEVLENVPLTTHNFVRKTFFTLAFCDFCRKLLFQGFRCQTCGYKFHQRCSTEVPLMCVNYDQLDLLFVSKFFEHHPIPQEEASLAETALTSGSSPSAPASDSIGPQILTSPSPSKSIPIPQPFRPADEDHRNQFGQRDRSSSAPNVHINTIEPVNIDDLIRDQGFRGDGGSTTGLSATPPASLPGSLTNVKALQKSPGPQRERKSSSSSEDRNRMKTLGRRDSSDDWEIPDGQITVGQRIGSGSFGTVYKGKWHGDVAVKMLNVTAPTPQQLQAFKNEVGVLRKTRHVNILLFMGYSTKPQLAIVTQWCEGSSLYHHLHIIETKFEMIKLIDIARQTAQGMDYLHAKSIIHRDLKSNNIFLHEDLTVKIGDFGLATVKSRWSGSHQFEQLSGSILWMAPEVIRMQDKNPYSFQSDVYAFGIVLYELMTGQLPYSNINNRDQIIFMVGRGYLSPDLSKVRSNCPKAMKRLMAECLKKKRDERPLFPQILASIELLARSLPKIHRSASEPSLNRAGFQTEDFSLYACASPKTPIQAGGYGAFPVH
Receptor-type tyrosine-protein kinase FLT3 (Homo sapiens), sequence (P36888 whole entry): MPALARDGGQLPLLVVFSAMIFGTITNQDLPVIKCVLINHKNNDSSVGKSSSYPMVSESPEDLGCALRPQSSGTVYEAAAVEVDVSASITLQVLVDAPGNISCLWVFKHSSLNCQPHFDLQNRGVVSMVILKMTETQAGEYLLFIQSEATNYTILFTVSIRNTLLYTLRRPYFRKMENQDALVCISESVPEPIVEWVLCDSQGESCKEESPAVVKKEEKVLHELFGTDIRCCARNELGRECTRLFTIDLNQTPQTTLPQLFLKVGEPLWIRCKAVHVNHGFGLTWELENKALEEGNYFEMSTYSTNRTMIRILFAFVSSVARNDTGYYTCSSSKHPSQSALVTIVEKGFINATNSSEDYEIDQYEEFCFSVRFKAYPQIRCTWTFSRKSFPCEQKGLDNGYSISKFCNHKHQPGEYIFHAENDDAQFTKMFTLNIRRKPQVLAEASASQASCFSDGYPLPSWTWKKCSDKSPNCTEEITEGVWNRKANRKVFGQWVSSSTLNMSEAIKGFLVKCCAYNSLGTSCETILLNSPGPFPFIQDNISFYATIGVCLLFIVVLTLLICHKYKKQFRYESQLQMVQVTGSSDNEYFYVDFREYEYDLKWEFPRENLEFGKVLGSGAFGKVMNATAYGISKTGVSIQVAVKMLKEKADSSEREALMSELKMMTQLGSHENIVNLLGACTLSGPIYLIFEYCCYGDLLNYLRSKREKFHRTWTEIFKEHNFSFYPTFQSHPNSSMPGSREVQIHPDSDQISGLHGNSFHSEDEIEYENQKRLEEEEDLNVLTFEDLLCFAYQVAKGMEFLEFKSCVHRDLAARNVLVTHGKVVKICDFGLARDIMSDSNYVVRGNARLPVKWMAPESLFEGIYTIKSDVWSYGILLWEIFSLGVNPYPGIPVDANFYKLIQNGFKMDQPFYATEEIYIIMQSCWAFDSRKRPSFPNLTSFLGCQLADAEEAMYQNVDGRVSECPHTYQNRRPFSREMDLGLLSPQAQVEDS
Epidermal growth factor receptor (Homo sapiens), sequence (P00533 whole entry): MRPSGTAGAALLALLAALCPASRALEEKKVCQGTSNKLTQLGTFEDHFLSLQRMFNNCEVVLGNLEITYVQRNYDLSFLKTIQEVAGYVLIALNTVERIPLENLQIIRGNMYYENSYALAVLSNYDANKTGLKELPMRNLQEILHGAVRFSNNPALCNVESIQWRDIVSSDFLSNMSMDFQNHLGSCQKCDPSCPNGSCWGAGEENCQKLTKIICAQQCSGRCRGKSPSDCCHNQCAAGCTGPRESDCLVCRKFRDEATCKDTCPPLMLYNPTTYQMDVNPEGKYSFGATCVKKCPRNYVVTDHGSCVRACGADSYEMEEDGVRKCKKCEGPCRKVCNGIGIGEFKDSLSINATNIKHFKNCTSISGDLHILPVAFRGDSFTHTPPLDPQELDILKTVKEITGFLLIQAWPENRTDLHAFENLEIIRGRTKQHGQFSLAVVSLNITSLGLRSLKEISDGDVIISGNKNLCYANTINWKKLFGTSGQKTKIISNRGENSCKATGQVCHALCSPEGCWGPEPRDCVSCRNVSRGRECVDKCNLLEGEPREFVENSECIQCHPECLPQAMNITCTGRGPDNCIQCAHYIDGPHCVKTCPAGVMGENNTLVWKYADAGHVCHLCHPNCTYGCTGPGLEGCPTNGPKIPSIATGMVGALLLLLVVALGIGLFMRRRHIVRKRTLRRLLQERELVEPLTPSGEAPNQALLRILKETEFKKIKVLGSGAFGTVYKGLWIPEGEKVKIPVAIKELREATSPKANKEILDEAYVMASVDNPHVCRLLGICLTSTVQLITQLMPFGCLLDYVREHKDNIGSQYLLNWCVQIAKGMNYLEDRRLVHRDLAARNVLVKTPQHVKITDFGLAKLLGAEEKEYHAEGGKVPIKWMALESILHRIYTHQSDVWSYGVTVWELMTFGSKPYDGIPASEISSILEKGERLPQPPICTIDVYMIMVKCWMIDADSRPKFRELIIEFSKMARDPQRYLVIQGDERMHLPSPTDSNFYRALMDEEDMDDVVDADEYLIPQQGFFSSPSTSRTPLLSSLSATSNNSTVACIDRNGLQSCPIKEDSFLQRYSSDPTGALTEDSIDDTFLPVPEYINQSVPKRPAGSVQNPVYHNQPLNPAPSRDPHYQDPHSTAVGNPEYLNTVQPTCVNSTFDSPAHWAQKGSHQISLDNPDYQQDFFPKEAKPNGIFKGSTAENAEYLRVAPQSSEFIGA
Vascular endothelial growth factor receptor 2 (Homo sapiens), sequence (P35968 whole entry): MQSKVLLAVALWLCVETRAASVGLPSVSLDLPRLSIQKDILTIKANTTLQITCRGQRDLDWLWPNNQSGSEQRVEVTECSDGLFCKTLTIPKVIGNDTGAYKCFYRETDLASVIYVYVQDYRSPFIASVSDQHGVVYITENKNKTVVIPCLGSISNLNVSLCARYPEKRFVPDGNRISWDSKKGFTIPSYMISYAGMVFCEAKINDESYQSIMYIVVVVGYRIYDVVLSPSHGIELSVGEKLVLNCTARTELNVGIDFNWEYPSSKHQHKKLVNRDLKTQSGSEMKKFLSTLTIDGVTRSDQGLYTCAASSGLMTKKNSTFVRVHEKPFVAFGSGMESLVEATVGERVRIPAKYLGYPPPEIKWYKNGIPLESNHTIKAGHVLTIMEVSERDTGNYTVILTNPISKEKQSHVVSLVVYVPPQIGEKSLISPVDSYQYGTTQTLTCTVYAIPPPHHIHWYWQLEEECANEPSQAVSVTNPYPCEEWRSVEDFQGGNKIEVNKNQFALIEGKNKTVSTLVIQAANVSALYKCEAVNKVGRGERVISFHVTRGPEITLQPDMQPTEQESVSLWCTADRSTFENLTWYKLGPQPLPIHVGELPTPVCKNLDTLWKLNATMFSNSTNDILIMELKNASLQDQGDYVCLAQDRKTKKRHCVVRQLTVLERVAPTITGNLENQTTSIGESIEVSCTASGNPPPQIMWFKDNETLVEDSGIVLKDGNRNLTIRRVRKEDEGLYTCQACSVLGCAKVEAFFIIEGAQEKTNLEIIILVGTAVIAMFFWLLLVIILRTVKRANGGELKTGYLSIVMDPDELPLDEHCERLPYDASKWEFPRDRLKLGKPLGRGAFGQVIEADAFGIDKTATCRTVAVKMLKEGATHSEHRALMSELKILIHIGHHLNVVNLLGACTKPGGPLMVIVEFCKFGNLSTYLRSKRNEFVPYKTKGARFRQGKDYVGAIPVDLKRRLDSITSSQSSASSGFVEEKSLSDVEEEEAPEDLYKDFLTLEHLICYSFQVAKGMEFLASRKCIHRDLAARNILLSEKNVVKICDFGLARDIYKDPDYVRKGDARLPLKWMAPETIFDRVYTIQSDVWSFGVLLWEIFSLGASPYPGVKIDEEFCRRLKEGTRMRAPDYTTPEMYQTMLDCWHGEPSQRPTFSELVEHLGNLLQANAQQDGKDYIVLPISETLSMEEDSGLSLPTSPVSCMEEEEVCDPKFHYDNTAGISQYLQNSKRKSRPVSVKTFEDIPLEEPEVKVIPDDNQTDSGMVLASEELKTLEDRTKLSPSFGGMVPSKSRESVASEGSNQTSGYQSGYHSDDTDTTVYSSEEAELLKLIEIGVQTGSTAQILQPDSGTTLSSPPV
Dual specificity mitogen-activated protein kinase kinase 1 (Homo sapiens), sequence (Q02750 whole entry): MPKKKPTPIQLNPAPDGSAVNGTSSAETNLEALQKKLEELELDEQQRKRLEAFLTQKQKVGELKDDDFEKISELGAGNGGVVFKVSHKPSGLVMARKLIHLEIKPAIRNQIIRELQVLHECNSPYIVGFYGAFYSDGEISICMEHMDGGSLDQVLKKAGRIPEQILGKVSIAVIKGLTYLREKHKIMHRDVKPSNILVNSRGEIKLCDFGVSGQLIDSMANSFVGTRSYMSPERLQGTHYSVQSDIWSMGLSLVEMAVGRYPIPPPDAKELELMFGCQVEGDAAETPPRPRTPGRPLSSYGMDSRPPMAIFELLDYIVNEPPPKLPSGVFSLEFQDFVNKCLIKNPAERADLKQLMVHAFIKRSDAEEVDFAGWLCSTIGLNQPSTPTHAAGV

COc1cc2cc(Oc3ccc(NC(=O)Nc4cc(C(F)(F)F)cc(C(F)(F)F)c4)cc3)c(C)nc2cc1OCCN1CCOCC1
inhibition [1]: 26.5% | GI50 [2]: 1.8 µM | GI50 [3]: 1.32 µM | GI50 [4]: 1.41 µM | TGI [5]: 5.52 µM | inhibition [6]: 6.34% | GI50 [7]: 1.67 µM | GI50 [8]: 1.54 µM | TGI [9]: 2.12 µM | TGI [10]: 6.69 µM | TGI [11]: 10.2 µM | GI50 [12]: 1.82 µM | TGI [13]: 6.9 µM | TGI [14]: 3.76 µM | GI50 [15]: 1.63 µM | GI50 [16]: 1.72 µM | GI50 [17]: 1.43 µM | TGI [18]: 7.21 µM | GI50 [19]: 1.22 µM | GI50 [20]: 1.47 µM | TGI [21]: 5.09 µM | TGI [22]: 5.48 µM | GI50 [23]: 1.66 µM | TGI [24]: 2.99 µM | GI50 [25]: 1.98 µM | TGI [26]: 6.57 µM | inhibition [27]: 25.5% | GI50 [28]: 1.13 µM | TGI [29]: 5.25 µM | GI50 [30]: 1.18 µM | inhibition [31]: 3.62% | GI50 [32]: 1.12 µM | TGI [33]: 3.79 µM | inhibition [34]: 20.5% | TGI [35]: 3.65 µM | GI50 [36]: 1.41 µM | TGI [37]: 6.45 µM | GI50 [38]: 0.84 µM | GI50 [39]: 1.46 µM | TGI [40]: 9.16 µM | TGI [41]: 7 µM | GI50 [42]: 1.88 µM | TGI [43]: 7.14 µM | TGI [44]: 2.85 µM | GI50 [45]: 3.7 µM | TGI [46]: 5.5 µM | GI50 [47]: 1.51 µM | TGI [48]: 7.17 µM

COc1cc2cc(Oc3ccc(NC(=O)Nc4ccc(F)c(C(F)(F)F)c4)cc3)c(C)nc2cc1OCCN1CCOCC1
inhibition [1]: 23.7% | GI50 [2]: 2.8 µM | GI50 [3]: 1.86 µM | GI50 [4]: 1.72 µM | TGI [5]: 5.34 µM | inhibition [6]: -5.85% | GI50 [7]: 2.73 µM | GI50 [8]: 1.77 µM | TGI [9]: 4.25 µM | TGI [10]: 5.88 µM | TGI [11]: 32.1 µM | GI50 [12]: 3.37 µM | TGI [13]: 19.5 µM | TGI [14]: 10.4 µM | GI50 [15]: 2.04 µM | GI50 [16]: 3.34 µM | GI50 [17]: 2.94 µM | TGI [18]: 12.1 µM | GI50 [19]: 0.45 µM | GI50 [20]: 2.06 µM | TGI [21]: 2.86 µM | TGI [22]: 15.5 µM | GI50 [23]: 1.96 µM | TGI [24]: 3.94 µM | GI50 [25]: 3.66 µM | TGI [26]: 11.5 µM | inhibition [27]: 13.1% | GI50 [28]: 2.83 µM | TGI [29]: 3.44 µM | GI50 [30]: 1.44 µM | inhibition [31]: 1.43% | GI50 [32]: 1.78 µM | TGI [33]: 3.24 µM | inhibition [34]: 28.4% | TGI [35]: 3.44 µM | GI50 [36]: 0.88 µM | TGI [37]: 9.02 µM | GI50 [38]: 1.12 µM | GI50 [39]: 1.44 µM | TGI [40]: 20.5 µM | TGI [41]: 8.9 µM | GI50 [42]: 0.71 µM | TGI [43]: 21.8 µM | TGI [44]: 11.1 µM | GI50 [45]: 4.94 µM | TGI [46]: 10.3 µM | GI50 [47]: 1.53 µM | TGI [48]: 9.86 µM

COc1cc2cc(Oc3ccc(NC(=O)Nc4ccc(Cl)c(C(F)(F)F)c4)cc3)c(C)nc2cc1OCCN1CCOCC1
inhibition [1]: 31.6% | GI50 [2]: 2.45 µM | GI50 [3]: 1.48 µM | GI50 [4]: 1.45 µM | TGI [5]: 3.62 µM | inhibition [6]: 2.32% | GI50 [7]: 2.67 µM | GI50 [8]: 1.68 µM | TGI [9]: 4.34 µM | TGI [10]: 3.89 µM | TGI [11]: 5.2 µM | GI50 [12]: 2.82 µM | TGI [13]: 23.2 µM | TGI [14]: 2.06 µM | GI50 [15]: 1.43 µM | GI50 [16]: 5.52 µM | GI50 [17]: 1.52 µM | TGI [18]: 12.6 µM | GI50 [19]: 0.47 µM | GI50 [20]: 1.8 µM | TGI [21]: 2.81 µM | TGI [22]: 56.2 µM | GI50 [23]: 1.65 µM | TGI [24]: 3.99 µM | GI50 [25]: 2.59 µM | TGI [26]: > 100 µM | inhibition [27]: 21.7% | GI50 [28]: 1.76 µM | TGI [29]: 3.26 µM | GI50 [30]: 1.36 µM | inhibition [31]: -2.4% | GI50 [32]: 1.77 µM | TGI [33]: 3.27 µM | inhibition [34]: 13.2% | TGI [35]: 4.15 µM | GI50 [36]: 0.67 µM | TGI [37]: 5.07 µM | GI50 [38]: 0.94 µM | GI50 [39]: 1.39 µM | TGI [40]: 4.55 µM | TGI [41]: 5.11 µM | GI50 [42]: 0.58 µM | TGI [43]: 11.2 µM | TGI [44]: 3.9 µM | GI50 [45]: 4.97 µM | TGI [46]: 6.95 µM | GI50 [47]: 1.52 µM | TGI [48]: 5.52 µM
